Reference: patent US10544156B2, “Hemi-synthetic trilobine analogs for use as a drug” (PIERRE FABRE MEDICAMENT, priority 2015, dated 2020)
Where two headings read alike, the source gives them in different places.

What was measured:
[1] = biological target: T1, human C-terminal DNMT3A (623-908a.a.) (Homo sapiens, UniProt Q9Y6K1); assay: hDNMT3A assay (restriction-based fluorescence assay); type: biochemical; conditions: for inhibition at 10 µM: read-out: hDNMT 3A inhibition, Inhibition (%) 10 μM; for inhibition at 32 µM: read-out: hDNMT 3A inhibition, Inhibition (%) 32 μM
T1 construct: The human C-terminal DNMT3A (623-908a.a.); made in house
T1 sequence (Q9Y6K1 627-912 limits assumed): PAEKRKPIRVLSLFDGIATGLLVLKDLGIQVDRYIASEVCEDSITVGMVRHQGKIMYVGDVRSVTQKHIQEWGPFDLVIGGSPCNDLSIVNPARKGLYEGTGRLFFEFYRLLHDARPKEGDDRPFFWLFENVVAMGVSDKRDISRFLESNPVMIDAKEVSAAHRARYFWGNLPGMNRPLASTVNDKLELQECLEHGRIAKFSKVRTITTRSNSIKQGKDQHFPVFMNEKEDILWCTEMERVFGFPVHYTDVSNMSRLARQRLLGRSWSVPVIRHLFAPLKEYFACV
From the text: hDNMT3A enzyme inhibition was adapted from the restriction-based fluorescence assay protocol as described in the literature (Ceccaldi et al. Chem Bio Chem 2011, 12, 1337-1345). Briefly, a 5′-labelled biotin oligonucleotide is hybridized to its complementary strand labelled with 6-carboxyfluorescein at the 3′-end into a 384 well microplate (black Optiplates; Perkin Elmer) pre-coated with avidin. The duplex contains a unique CpG site overlapping with a restriction site of a methylation sensitive restriction enzyme. The human C-terminal DNMT3A (623-908a.a.), produced as described in (Gros et al. Nucl. Acids Res. 2013, 41(19):e185), was added in each well (200 ng/well) and mixed with the chemical compounds at desired concentrations and freshly prepared SAM (20 μM final concentration) to start the reaction in a total volume of 50 μL. After 1 hour incubation at 37° C. each well were washed three times with PBS, Tween-20 0.05%, NaCl (500 mM) and three more times with PBST. Specific fluorescent signals were detected with the methylation-sensitive restriction enzyme HpyCH4IV (NEB) as described and measured on a Perkin Elmer Envision detector. The percentage of inhibition is reported. The formula used to calculate the percentage of inhibition is [(X−Y)/X]×100, where X is the signal determined in the absence of the inhibitor and Y is the signal obtained in the presence of the inhibitor. The concentration at which 50% of efficacy of inhibition is observed (EC50) was determined by analysis of a concentration range of the tested compound in triplicates. The non-linear regression fittings with sigmoidal dose-response (variable slope) were performed with GraphPad Prism 4.03 (GraphPad Software).

[2] = tested on: luciferase reporter gene under control of methylated CMV promoter in KG-1 cells; assay: CMV-luc reexpression in KG-1 cells; type: cell-based, human; conditions: for Induction Fold (IF) of luciferase gene reporter in KG-1 CMV-Luc: 24 h, vs DMSO; for IF-24 h, KG1 CMV-Luc model: at 5 μM, 24 h (Table 5)
Procedure: KG-1 cells were stably transfected with the firefly luciferase reporter gene (luc+ from pGL3; Promega) under the control of the cytomegalovirus (CMV) promoter (from pEGFP-N1; Clontech Laboratories Inc.) partially methylated (50%). 20,000 cells per well were seeded in a 96-well plate. After 24 h incubation in the presence of the test compound or solvant (DMSO), the induction of the promoter was measured by quantification of the luciferase signal with the Brite-lite assay system (PerkinElmer) according to the manufacturer's protocol. The luminescence was measured on an EnVision multilabel plate reader (PerkinElmer), and the data are expressed as the fold induction as compared with the DMSO control. The mean of three experiments and the standard error is reported.

[3] = biological target: T2, His-DNMT1 (182 kDa, human) (Homo sapiens, UniProt P26358); assay: hDNMT1 assay ([methyl-3H] SAM Flashplate); type: biochemical; conditions: for EC50: read-out: EC50 (μM), hDNMT 1 inhibition; for inhibition at 10 µM: read-out: hDNMT 1 inhibition, Inhibition (%) 10 μM; for inhibition at 32 µM: read-out: hDNMT 1 inhibition, Inhibition (%) 32 μM
T2 construct: His; made in house
T2 sequence (P26358 whole entry): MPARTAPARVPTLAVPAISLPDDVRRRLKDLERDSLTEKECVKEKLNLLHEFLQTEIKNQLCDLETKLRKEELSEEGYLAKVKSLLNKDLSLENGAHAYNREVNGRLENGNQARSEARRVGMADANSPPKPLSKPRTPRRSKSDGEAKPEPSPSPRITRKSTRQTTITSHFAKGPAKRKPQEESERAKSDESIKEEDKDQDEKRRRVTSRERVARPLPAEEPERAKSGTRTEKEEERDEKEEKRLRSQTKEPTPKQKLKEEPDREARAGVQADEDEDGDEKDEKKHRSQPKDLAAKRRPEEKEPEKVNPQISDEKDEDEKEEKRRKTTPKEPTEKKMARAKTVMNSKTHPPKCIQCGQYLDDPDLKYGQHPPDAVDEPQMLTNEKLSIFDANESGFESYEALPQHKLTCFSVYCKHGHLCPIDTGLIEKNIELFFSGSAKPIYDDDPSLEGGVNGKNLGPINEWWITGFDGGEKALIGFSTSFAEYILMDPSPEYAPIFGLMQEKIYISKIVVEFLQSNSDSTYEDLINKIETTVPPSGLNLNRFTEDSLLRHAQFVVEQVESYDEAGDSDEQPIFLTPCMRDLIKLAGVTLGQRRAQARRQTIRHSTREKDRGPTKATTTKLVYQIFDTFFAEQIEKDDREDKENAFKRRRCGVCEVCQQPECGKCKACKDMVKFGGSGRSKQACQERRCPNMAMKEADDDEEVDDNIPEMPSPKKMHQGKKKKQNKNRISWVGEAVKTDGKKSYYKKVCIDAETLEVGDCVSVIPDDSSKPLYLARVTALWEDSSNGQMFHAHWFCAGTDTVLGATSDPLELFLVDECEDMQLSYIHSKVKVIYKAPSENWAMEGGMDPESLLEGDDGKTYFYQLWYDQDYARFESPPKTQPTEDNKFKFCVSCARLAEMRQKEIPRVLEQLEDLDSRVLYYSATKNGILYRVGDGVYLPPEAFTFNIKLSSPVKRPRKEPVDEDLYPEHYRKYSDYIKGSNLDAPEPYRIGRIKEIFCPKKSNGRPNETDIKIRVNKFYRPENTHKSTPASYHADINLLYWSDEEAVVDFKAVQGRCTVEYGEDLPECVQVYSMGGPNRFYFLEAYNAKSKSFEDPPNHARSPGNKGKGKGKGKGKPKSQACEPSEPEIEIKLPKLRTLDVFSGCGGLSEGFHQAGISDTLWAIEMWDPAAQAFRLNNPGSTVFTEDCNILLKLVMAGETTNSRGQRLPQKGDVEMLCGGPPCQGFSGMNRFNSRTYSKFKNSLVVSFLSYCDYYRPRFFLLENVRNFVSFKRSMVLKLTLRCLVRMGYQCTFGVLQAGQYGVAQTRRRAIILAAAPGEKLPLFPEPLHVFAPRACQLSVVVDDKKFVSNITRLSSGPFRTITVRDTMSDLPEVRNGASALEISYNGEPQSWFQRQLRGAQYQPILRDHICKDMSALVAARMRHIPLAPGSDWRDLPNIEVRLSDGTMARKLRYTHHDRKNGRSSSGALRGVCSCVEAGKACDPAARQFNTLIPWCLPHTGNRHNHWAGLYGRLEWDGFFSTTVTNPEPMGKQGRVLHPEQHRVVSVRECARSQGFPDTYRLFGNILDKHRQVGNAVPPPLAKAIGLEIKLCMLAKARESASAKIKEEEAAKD
Procedure: His-DNMT1 (182 kDa, human) was cloned, expressed and purified as described (Halby et al. Chem Bio Chem 2012, 13, 157-165). The reaction was performed in a 10 μL total reaction volume in low volume NBS™ 384-well microplates (Corning), containing the tested compound (up to 1% DMSO), 1 μM of a SAM/[methyl-^3H] SAM (3TBq/mmol, PerkinElmer) mix in a ratio of 3-to-1 (isotopic dilution 1*:3), 0.3 μM of biotinylated hemimethylated DNA duplex (5′-GATmCGCmCGATGmCGmCGAATmCGmCGATmCGATGmCGAT-3′ and BIOT-5′-[…]-3′), and 90 nM of DNMT1 in methylation buffer (20 mM HEPES pH 7.2, 1 mM EDTA, 50 mM KCl, 25 μg/mL BSA). The reaction was incubated at 37° C. for 2 hours. 8 μL are then transferred into a streptavidin 96-well scintillant coated Flashplate™ (PerkinElmer) containing 190 μL of 20 μM SAH in 50 mM Tris-HCl pH 7.4. The Flashplate™ was agitated at room temperature for 1 hour and read in 200 μL of 50 mM Tris-HCl pH 7.4 on TopCount NXT (PerkinElmer). The percentage of inhibition is reported. The formula used to calculate the percentage of inhibition is [(X−Y)/X]×100, where X is the signal determined in the absence of the inhibitor and Y is the signal obtained in the presence of the inhibitor.

[4] = tested on: HCT116 (colorectal cancer); assay: Anti-proliferative activity (ATPLite); type: cell-based; conditions: Homo sapiens, HCT-116; daily treatment, cell viability by ATPLite; read-out: Antiproliferative activity: IC50 (μM) HCT116 (colorectal cancer)
Procedure: (§1) To measure the anti-proliferative properties of tested molecules, 2×10^4 cells are seeded at day 0 in a 96 wells plate. The compounds to be tested, stored at −20° C. as 10^−2 M stock solution in 100% DMSO, are freshly diluted on day 1 in the cell medium, before adding a dose range of 3.2 nM to 10 μM to the cells. Cells are treated everyday and cell viability assessed after 3 days or 7 days of treatment. The cell viability is assessed using the ATPLite kit from Perkin (ATPlite 1 Step Luminescence Assay System, ref 3016739), following the provider instructions. The raw data are analyzed with GraphPad Prism software (v4.03) to generate IC50 values corresponding to the compound concentrations giving 50% reduction in cell viability. The values presented are the mean results of at least two independent experiments. The standard errors are indicated.

KG-1 (leukemia) = assay: Anti-proliferative activity (ATPLite); type: cell-based; conditions: Homo sapiens; daily treatment, cell viability by ATPLite; read-out: Antiproliferative activity: IC50 (μM) KG-1 (leukemia)
Procedure: as §1

[5] = concentration at which 50% of efficacy of inhibition is observed, read-out: EC50 (μM), hDNMT 3A inhibition
[6] = interval line below the EC50 of the same compound, read-out: EC50 (μM), range given

Row | Structure (SMILES) | EC50 [1, 5] [µM] | EC50 [1, 6] [µM] | inhibition at 10 µM [1] [%] | inhibition at 32 µM [1] [%] | Induction Fold (IF) of luciferase gene reporter in KG-1 CMV-Luc ([2]; 0.1 μM) | Induction Fold (IF) of luciferase gene reporter in KG-1 CMV-Luc ([2]; 0.32 μM) | Induction Fold (IF) of luciferase gene reporter in KG-1 CMV-Luc ([2]; 1 μM) | Induction Fold (IF) of luciferase gene reporter in KG-1 CMV-Luc ([2]; 3.2 μM) | Induction Fold (IF) of luciferase gene reporter in KG-1 CMV-Luc ([2]; 5 μM) | Induction Fold (IF) of luciferase gene reporter in KG-1 CMV-Luc ([2]; 10 μM) | IF-24 h, KG1 CMV-Luc model [2] | EC50 [3] [µM] | inhibition at 10 µM [3] [%] | inhibition at 32 µM [3] [%] | IC50 [4] [µM] | IC50 (KG-1 (leukemia)) [µM]
1 | CCN(CC)CCCNC(=O)N1CCc2cc3c4cc2[C@@H]1Cc1ccc(OC)c(c1)Oc1ccc(cc1)C[C@H]1c2c(cc(OC)c(c2O4)O3)CCN1C(=O)NCCCN(CC)CC [Product 48] | 1.93 | 1 to 3.72 | 82 | 98 | 1.1 ± 0.1 | 1.2 ± 0.3 | 1.2 ± 0.1 | 1.2 ± 0.1 | 1.3 ± 0.1 | 2.3 ± 1.3 | 1.1 | 14.6 ± 1.3 | 32 | 98 | – | –
2 | CCN(CC)CCCNC(=S)N1CCc2cc3c4cc2[C@@H]1Cc1ccc(OC)c(c1)Oc1ccc(cc1)C[C@H]1c2c(cc(OC)c(c2O4)O3)CCN1C [Product 42] | 0.64 | 0.47 to 0.86 | 98 | 98 | 1.2 ± 0.1 | 1.3 ± 0.1 | 1.5 ± 0.1 | 2.0 ± 0.2 | 2.3 ± 0.1 | – | 1.1 ± 0.6 | 10.6 ± 2.8 | 38 | 100 | 0.5 ± 0.01 | 3.57 ± 0.04
